In ChEMBL document CHEMBL3044672, “N9- and N7-(Chloromethyl Phenymethyl)Chloropurine Derivatives from , '-Dichloroxylenes: Synthesis and Anticancer Activity” (2005):

Tests used:
Type in all cases: functional
[1] = test system: DU-145; assay: Cytotoxicity against Homo sapiens (human) DU145 cells after 48 hr by sulforhodamine B assay; conditions: DU-145, 48 h
[2] = test system: SN12C; assay: Cytotoxicity against Homo sapiens (human) SN12C cells after 48 hr by sulforhodamine B assay
[3] = test system: A549; assay: Cytotoxicity against Homo sapiens (human) A549 cells after 48 hr by sulforhodamine B assay; conditions: A549, 48 h; for CC50: read-out: LC50 (the source's name)
[4] = test system: NCI-H23; assay: Cytotoxicity against Homo sapiens (human) NCI-H23 cells after 48 hr by sulforhodamine B assay; conditions: NCI-H23, 48 h; for CC50: read-out: LC50 (the source's name)
[5] = test system: HCT-15; assay: Cytotoxicity against Homo sapiens (human) HCT15 cells after 48 hr by sulforhodamine B assay; conditions: HCT-15, 48 h; for CC50: read-out: LC50 (the source's name)
[6] = test system: MDA-MB-435; assay: Cytotoxicity against Homo sapiens (human) MDA-MB-435 cells after 48 hr by sulforhodamine B assay; conditions: MDA-MB-435, 48 h
[7] = test system: TK-10; assay: Cytotoxicity against Homo sapiens (human) TK10 cells after 48 hr by sulforhodamine B assay; conditions: TK-10, 48 h; for CC50: read-out: LC50 (the source's name)
[8] = test system: UACC-257; assay: Cytotoxicity against Homo sapiens (human) UACC257 cells after 48 hr by sulforhodamine B assay; conditions: UACC-257, 48 h
[9] = test system: MCF7; assay: Cytotoxicity against Homo sapiens (human) MCF7 cells after 48 hr by sulforhodamine B assay; conditions: MCF7, 48 h
[10] = test system: UO-31; assay: Cytotoxicity against Homo sapiens (human) UO31 cells after 48 hr by sulforhodamine B assay; conditions: UO-31, 48 h
[11] = test system: RPMI-8226; assay: Cytotoxicity against Homo sapiens (human) RPMI8226 cells after 48 hr by sulforhodamine B assay; conditions: RPMI-8226, 48 h; for CC50: read-out: LC50 (the source's name)
[12] = test system: K562; assay: Cytotoxicity against Homo sapiens (human) K562 cells after 48 hr by sulforhodamine B assay; conditions: K562, 48 h; for CC50: read-out: LC50 (the source's name)
[13] = test system: LOX IMVI; assay: Cytotoxicity against Homo sapiens (human) LOXIMVI cells after 48 hr by sulforhodamine B assay
[14] = test system: HCC 2998; assay: Cytotoxicity against Homo sapiens (human) HCC2998 cells after 48 hr by sulforhodamine B assay; conditions: HCC 2998, 48 h; for CC50: read-out: LC50 (the source's name)
[15] = test system: NCI-H460; assay: Cytotoxicity against Homo sapiens (human) NCI-H460 cells after 48 hr by sulforhodamine B assay; conditions: NCI-H460, 48 h; for CC50: read-out: LC50 (the source's name)
[16] = test system: Hs-578T; assay: Cytotoxicity against Homo sapiens (human) Hs 578T cells after 48 hr by sulforhodamine B assay
[17] = test system: NCI-H226; assay: Cytotoxicity against Homo sapiens (human) NCI-H226 cells after 48 hr by sulforhodamine B assay; conditions: NCI-H226, 48 h; for CC50: read-out: LC50 (the source's name)
[18] = test system: KM12; assay: Cytotoxicity against Homo sapiens (human) KM12 cells after 48 hr by sulforhodamine B assay; conditions: KM12, 48 h; for CC50: read-out: LC50 (the source's name)
[19] = test system: IGROV-1; assay: Cytotoxicity against Homo sapiens (human) IGROV1 cells after 48 hr by sulforhodamine B assay; conditions: IGROV-1, 48 h
[20] = test system: M14; assay: Cytotoxicity against Homo sapiens (human) M14 cells after 48 hr by sulforhodamine B assay; conditions: M14, 48 h
[21] = test system: SK-MEL-28; assay: Cytotoxicity against Homo sapiens (human) SK-MEL-28 cells after 48 hr by sulforhodamine B assay; conditions: SK-MEL-28, 48 h
[22] = test system: T47D; assay: Cytotoxicity against Homo sapiens (human) T47D cells after 48 hr by sulforhodamine B assay
[23] = test system: PC-3; assay: Cytotoxicity against Homo sapiens (human) PC3 cells after 48 hr by sulforhodamine B assay; conditions: PC-3, 48 h
[24] = test system: MCF7; assay: Cytotoxicity against Homo sapiens (human) MCF7 cells assessed as cell growth at 10^-4 M after 48 hr by Alamar blue assay; conditions: MCF7, 48 h, read-out: Activity
[25] = test system: HT-29; assay: Cytotoxicity against Homo sapiens (human) HT-29 cells after 48 hr by sulforhodamine B assay; conditions: HT-29, 48 h
[26] = test system: U-251; assay: Cytotoxicity against Homo sapiens (human) U251 cells after 48 hr by sulforhodamine B assay; conditions: U-251, 48 h
[27] = test system: SK-MEL-5; assay: Cytotoxicity against Homo sapiens (human) SK-MEL-5 cells after 48 hr by sulforhodamine B assay; conditions: SK-MEL-5, 48 h
[28] = test system: NCI-H460; assay: Cytotoxicity against Homo sapiens (human) NCI-H460 cells assessed as cell growth at 10^-4 M after 48 hr by Alamar blue assay; conditions: NCI-H460, 48 h, read-out: Activity
[29] = test system: HOP-92; assay: Cytotoxicity against Homo sapiens (human) HOP92 cells after 48 hr by sulforhodamine B assay; conditions: HOP-92, 48 h; for CC50: read-out: LC50 (the source's name)
[30] = Cytotoxicity against Homo sapiens (human) NCI-ADR-RES cells after 48 hr by sulforhodamine B assay
[31] = test system: OVCAR-4; assay: Cytotoxicity against Homo sapiens (human) OVCAR4 cells after 48 hr by sulforhodamine B assay; conditions: OVCAR-4, 48 h
[32] = test system: A498; assay: Cytotoxicity against Homo sapiens (human) A498 cells after 48 hr by sulforhodamine B assay; conditions: A498, 48 h

Nc1nc(Cl)c2ncn(Cc3ccc(CCl)cc3)c2n1
LC50 [1]: 43.6 µM
TGI [1]: 19.5 µM
LC50 (50% lethal concentration) [2]: 60.3 µM
TGI [2]: 26.9 µM
TGI [3]: 75.9 µM
CC50 [3]: > 100 µM
TGI [4]: 30.2 µM
CC50 [4]: 77.6 µM
TGI [5]: 19.9 µM
CC50 [5]: 67.6 µM
LC50 [6]: > 100 µM
TGI [6]: 42.7 µM
TGI [7]: 40.7 µM
CC50 [7]: 97.7 µM
LC50 (concentration killing 50% of cells) [8]: > 100 µM
TGI [8]: 47.9 µM
LC50 (concentration killing 50% of cells) [9]: > 100 µM
TGI [9]: 17 µM
LC50 (concentration causing 50% net cell kill) [10]: 55 µM
TGI [10]: 25.1 µM
TGI [11]: > 100 µM
CC50 [11]: > 100 µM
TGI [12]: > 100 µM
CC50 [12]: > 100 µM
LC50 [13]: > 100 µM
TGI [13]: 43.6 µM
TGI [14]: 8.91 µM
CC50 [14]: 75.9 µM
TGI [15]: 9.95 µM
CC50 [15]: 63.1 µM
LC50 [16]: > 100 µM
TGI [16]: > 100 µM
TGI [17]: 37.1 µM
CC50 [17]: > 100 µM
TGI [18]: 22.9 µM
CC50 [18]: 57.5 µM
LC50 [19]: 53.7 µM
TGI [19]: 22.9 µM
LC50 [20]: > 100 µM
TGI [20]: 38 µM
LC50 (concentration killing 50% of cells) [21]: > 100 µM
TGI [21]: 44.7 µM
LC50 [22]: > 100 µM
TGI [22]: 39.8 µM
LC50 (concentration causing 50% cell kill) [23]: 70.8 µM
TGI [23]: 25.1 µM
growth at 100 µM [24]: 0%
TGI [25]: 27.5 µM
CC50 ([25]; read-out: LC50 (the source's name)): 77.6 µM
LC50 (concentration killing 50% of cells) [26]: 44.7 µM
TGI [26]: 12 µM
LC50 [27]: 63.1 µM
TGI [27]: 31 µM
growth at 100 µM [28]: 0%
TGI [29]: > 100 µM
CC50 [29]: > 100 µM
LC50 (concentration killing 50% of cells) [30]: > 100 µM
TGI [30]: 26.9 µM
LC50 (concentration killing 50% of cells) [31]: 57.5 µM
TGI [31]: 30.2 µM
LC50 (lethal concentration, 50% cell kill) [32]: > 100 µM
TGI [32]: 85.1 µM

ClCc1cccc(Cn2cnc3nc(Cl)nc(Cl)c32)c1
GI50 [1]: 0.14 µM
LC50 [1]: 0.52 µM
TGI [1]: 0.26 µM
GI50 [2]: 1.44 µM
TGI [2]: 2.75 µM
GI50 [3]: 12 µM
TGI [3]: 25.7 µM
CC50 [3]: 55 µM
GI50 [4]: 1.54 µM
TGI [4]: 30.9 µM
CC50 [4]: 5.37 µM
GI50 [5]: 0.95 µM
TGI [5]: 2.13 µM
CC50 [5]: 4.57 µM
GI50 [6]: 1.47 µM
LC50 [6]: 5.24 µM
TGI [6]: 2.81 µM
GI50 [7]: 16.6 µM
TGI [7]: 30.2 µM
CC50 [7]: 55 µM
GI50 [8]: 3.46 µM
LC50 (concentration killing 50% of cells) [8]: 38.9 µM
TGI [8]: 15.1 µM
GI50 [9]: 1.51 µM
LC50 (concentration killing 50% of cells) [9]: > 100 µM
TGI [9]: 4.07 µM
GI50 [10]: 17.4 µM
LC50 (concentration causing 50% net cell kill) [10]: 72.4 µM
TGI [10]: 35.5 µM
GI50 [11]: 1.69 µM
TGI [11]: 4.16 µM
CC50 [11]: > 100 µM
GI50 [12]: 1.41 µM
TGI [12]: 2.69 µM
CC50 [12]: 5.24 µM
GI50 [13]: 0.23 µM
TGI [13]: 0.79 µM
GI50 [14]: 1.9 µM
TGI [14]: 3.31 µM
CC50 [14]: 5.75 µM
GI50 [15]: 1.69 µM
TGI [15]: 3.09 µM
CC50 [15]: 5.49 µM
GI50 [16]: 1.41 µM
TGI [16]: 2.81 µM
GI50 [17]: 1.28 µM
TGI [17]: 3.63 µM
CC50 [17]: 19.9 µM
GI50 [18]: 16.6 µM
TGI [18]: 35.5 µM
CC50 [18]: 74.1 µM
GI50 [19]: 17 µM
LC50 [19]: 55 µM
TGI [19]: 30.9 µM
GI50 [20]: 1.38 µM
LC50 [20]: 5.12 µM
TGI [20]: 2.63 µM
GI50 [21]: 0.17 µM
LC50 (concentration killing 50% of cells) [21]: 0.97 µM
TGI [21]: 0.4 µM
GI50 [22]: 0.22 µM
LC50 [22]: > 100 µM
TGI [22]: 0.61 µM
GI50 [23]: 1.54 µM
LC50 (concentration causing 50% cell kill) [23]: 5.37 µM
TGI [23]: 2.88 µM
growth at 100 µM [24]: 0%
GI50 [25]: 0.34 µM
GI50 [26]: 1.38 µM
LC50 (concentration killing 50% of cells) [26]: 5.12 µM
TGI [26]: 2.69 µM
GI50 [27]: 1.2 µM
LC50 [27]: 4.89 µM
TGI [27]: 2.45 µM
growth at 100 µM [28]: 0%
GI50 [29]: 1.47 µM
TGI [29]: 2.75 µM
CC50 [29]: 5.24 µM
GI50 [30]: 1.54 µM
LC50 (concentration killing 50% of cells) [30]: > 100 µM
TGI [30]: 3.09 µM
GI50 [31]: 1.58 µM
LC50 (concentration killing 50% of cells) [31]: 5.37 µM
TGI [31]: 2.95 µM
GI50 [32]: 1.51 µM
LC50 (lethal concentration, 50% cell kill) [32]: 5.37 µM
TGI [32]: 2.81 µM
